This passage reports IC50 results from ChEMBL document CHEMBL1140621, “2D-autocorrelation descriptors for predicting cytotoxicity of naphthoquinone ester derivatives against oral human epidermoid carcinoma” (Bioorg Med Chem, 2007).

pIC50: −log10 of the molar value.

In the test the test system is KB. Nature of the test: Cytotoxicity against human KB cells. The format is functional, cell-based.

By pIC50 is commonly meant the negative decadic logarithm of the IC50, by convention in mol/L. Read a high pIC50 as a small IC50. As to `COc1cc(C(=O)OCC(C)(C)CC2=CC(=O)c3ccccc3C2=O)c(OC)c2ccccc12`, the pIC50 is 4.90.
